Assay: xn = mol fraction of the nth substance listed
Conditions: 101 kPa

Nc1cccc(Cl)c1 + CCCCCCCCO
viscosity [mPa·s]
Conditions	x1 = 0.1441	x1 = 0.2748	x1 = 0.3937	x1 = 0.5026	x1 = 0.6025	x1 = 0.6945	x1 = 0.7795	x1 = 0.8584	x1 = 0.9317
303.15 K	6.059	5.754	5.485	5.247	5.034	4.844	4.674	4.519	4.379
308.15 K	5.155	4.924	4.723	4.547	4.391	4.253	4.131	4.02	3.924
313.15 K	4.409	4.229	4.076	3.941	3.823	3.721	3.63	3.551	3.483
318.15 K	3.856	3.697	3.564	3.448	3.347	3.258	3.181	3.114	3.06

Nc1cccc(Cl)c1 + CCCCCCCO
viscosity [mPa·s]
Conditions	x1 = 0.1306	x1 = 0.2526	x1 = 0.3669	x1 = 0.4741	x1 = 0.5749	x1 = 0.6698	x1 = 0.7593	x1 = 0.844	x1 = 0.9241
303.15 K	4.923	4.794	4.684	4.589	4.509	4.442	4.385	4.336	4.292
308.15 K	4.229	4.143	4.072	4.014	3.966	3.927	3.895	3.869	3.853
313.15 K	3.647	3.585	3.538	3.501	3.473	3.451	3.438	3.433	3.432
318.15 K	3.346	3.269	3.207	3.156	3.114	3.079	3.051	3.032	3.023

Nc1cccc(Cl)c1 + CCCCCCO
viscosity [mPa·s]
Conditions	x1 = 0.1167	x1 = 0.2291	x1 = 0.3375	x1 = 0.4421	x1 = 0.5431	x1 = 0.6407	x1 = 0.735	x1 = 0.8263	x1 = 0.9145
303.15 K	3.905	3.925	3.95	3.98	4.014	4.056	4.104	4.156	4.205
308.15 K	3.383	3.417	3.454	3.497	3.545	3.598	3.654	3.715	3.776
313.15 K	2.939	2.976	3.017	3.064	3.115	3.17	3.229	3.292	3.357
318.15 K	2.662	2.681	2.707	2.738	2.773	2.814	2.857	2.906	2.959

Reference: the CheMixHub viscosity set
